The values below come from patent publication US7846959B2, “Raf modulators and methods of use” (Exelixis, Inc., priority 2004, dated 2010).

The structures appear in SMILES notation.

One assay concerns the target c-Raf (Homo sapiens, UniProt P04049). As to the kind of experiment: Luciferase-coupled chemiluminescence kinase assay (ATP consumption), c-Raf. Format: biochemical. As to conditions: read-out: cRaf-1 (inhibition indicated as IC50). In a few lines:
(§1)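 Raf enzyme ([…]) pre-incubated with compound 30 minutes at room temperature in 20 mM Tris pH 7.5, 10 mM MgCl2, 0.03% TX-100, 1 mM DTT, then reacted with ATP for 3 hrs at ambient temperature. Remaining ATP quantified by luciferase-luciferin chemiluminescence, consumption held at 25-60%; IC50 reported.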

For another assay, the target named is B-Raf (Homo sapiens, UniProt P15056). As to the kind of experiment: Luciferase-coupled chemiluminescence kinase assay (ATP consumption), B-Raf. It is filed as biochemical. As to conditions: read-out: bRaf (inhibition indicated as IC50). In a few lines:
as §1

For orientation: IC50 means the midpoint of a concentration-inhibition curve.

B-Raf, sequence (P15056 whole entry): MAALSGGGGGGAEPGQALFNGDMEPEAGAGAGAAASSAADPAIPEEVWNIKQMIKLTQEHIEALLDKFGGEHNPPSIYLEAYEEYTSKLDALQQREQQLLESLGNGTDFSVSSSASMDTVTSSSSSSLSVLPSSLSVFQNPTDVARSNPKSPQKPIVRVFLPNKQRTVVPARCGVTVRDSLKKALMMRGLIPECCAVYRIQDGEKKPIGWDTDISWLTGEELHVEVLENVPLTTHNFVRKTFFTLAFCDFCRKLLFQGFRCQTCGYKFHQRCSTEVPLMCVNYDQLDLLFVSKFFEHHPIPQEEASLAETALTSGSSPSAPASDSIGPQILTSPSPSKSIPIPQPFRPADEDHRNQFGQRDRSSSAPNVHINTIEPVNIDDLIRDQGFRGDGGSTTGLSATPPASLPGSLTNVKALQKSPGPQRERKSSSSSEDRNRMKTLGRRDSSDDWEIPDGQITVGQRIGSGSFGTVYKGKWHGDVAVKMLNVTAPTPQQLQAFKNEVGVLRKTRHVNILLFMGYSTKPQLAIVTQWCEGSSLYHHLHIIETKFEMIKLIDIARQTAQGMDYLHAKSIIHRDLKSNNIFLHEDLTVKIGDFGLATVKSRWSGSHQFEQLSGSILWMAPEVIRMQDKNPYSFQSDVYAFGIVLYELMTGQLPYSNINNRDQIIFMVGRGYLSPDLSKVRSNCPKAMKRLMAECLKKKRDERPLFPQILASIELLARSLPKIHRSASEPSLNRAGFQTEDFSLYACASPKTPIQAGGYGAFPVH
c-Raf, sequence (P04049 whole entry): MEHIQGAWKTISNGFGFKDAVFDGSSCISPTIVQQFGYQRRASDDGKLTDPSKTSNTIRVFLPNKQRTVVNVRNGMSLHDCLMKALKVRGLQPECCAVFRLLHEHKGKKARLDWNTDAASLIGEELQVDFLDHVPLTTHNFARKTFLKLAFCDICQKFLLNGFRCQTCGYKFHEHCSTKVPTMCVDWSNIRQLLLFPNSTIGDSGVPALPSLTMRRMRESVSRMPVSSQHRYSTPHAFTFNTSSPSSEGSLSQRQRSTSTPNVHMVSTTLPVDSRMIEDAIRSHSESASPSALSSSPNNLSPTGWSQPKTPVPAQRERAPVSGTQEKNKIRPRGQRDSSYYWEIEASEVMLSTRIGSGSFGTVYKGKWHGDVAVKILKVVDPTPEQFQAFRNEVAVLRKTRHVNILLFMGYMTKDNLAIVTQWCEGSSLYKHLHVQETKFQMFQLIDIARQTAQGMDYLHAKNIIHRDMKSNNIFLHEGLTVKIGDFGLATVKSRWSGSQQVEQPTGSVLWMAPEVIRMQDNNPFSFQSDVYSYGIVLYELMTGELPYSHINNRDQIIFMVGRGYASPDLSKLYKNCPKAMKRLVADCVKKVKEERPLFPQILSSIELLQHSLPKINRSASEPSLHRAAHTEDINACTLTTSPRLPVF

Regarding `COC(=O)Nc1nc2ccc(C(=O)c3ccccc3C(=O)Nc3cccc(Br)c3)cc2[nH]1` [Entry 394, methyl {6-[(2-{[(3-bromophenyl)amino]carbonyl}phenyl)carbonyl]-1H-benzimidazol-2-yl}carbamate], the IC50 at c-Raf and at B-Raf was less than 100 nM each time.
As for `COC(=O)Nc1nc2ccc(C(=O)c3ccccc3C(=O)Nc3cccc(Cl)c3)cc2[nH]1` [Entry 395, methyl {6-[(2-{[(3-chlorophenyl)amino]carbonyl}phenyl)carbonyl]-1H-benzimidazol-2-yl}carbamate], the IC50 at c-Raf and on B-Raf was less than 100 nM each time.
`COC(=O)Nc1nc2ccc(C(=O)c3ccccc3C(=O)Nc3cccc(OC)c3)cc2[nH]1` [Entry 397, methyl (6-{[2-({[3-(methyloxy)phenyl]amino}carbonyl)phenyl]carbonyl}-1H-benzimidazol-2-yl)carbamate]: the IC50 on c-Raf and at B-Raf was less than 100 nM throughout.
Turning to `COC(=O)Nc1nc2ccc(C(=O)c3ccccc3C(=O)Nc3cccc(C(F)(F)F)c3)cc2[nH]1` [Entry 398, methyl (6-{[2-({[3-(trifluoromethyl)phenyl]amino}carbonyl)phenyl]carbonyl}-1H-benzimidazol-2-yl)carbamate], the IC50 at c-Raf and on B-Raf was less than 100 nM throughout.
As to `COC(=O)Nc1nc2ccc(C(=O)c3ccccc3C(=O)Nc3ccc(F)c(Cl)c3)cc2[nH]1` [Entry 401, methyl {6-[(2-{[(3-chloro-4-fluorophenyl)amino]carbonyl}phenyl)carbonyl]-1H-benzimidazol-2-yl}carbamate], the IC50 on c-Raf and at B-Raf was less than 100 nM each time.
With `COC(=O)Nc1nc2ccc(C(=O)c3ccccc3C(=O)Nc3cc(Cl)ccc3F)cc2[nH]1` [Entry 402, methyl {6-[(2-{[(5-chloro-2-fluorophenyl)amino]carbonyl}phenyl)carbonyl]-1H-benzimidazol-2-yl}carbamate], the IC50 on c-Raf and on B-Raf was less than 100 nM in each case.
Take `COC(=O)Nc1nc2ccc(C(=O)c3ccccc3C(=O)Nc3ccc(F)c(Br)c3)cc2[nH]1` [Entry 406, methyl {6-[(2-{[(3-bromo-4-fluorophenyl)amino]carbonyl}phenyl)carbonyl]-1H-benzimidazol-2-yl}carbamate]: the IC50 at c-Raf and on B-Raf was less than 100 nM in each case.
In the case of `COC(=O)Nc1nc2ccc(C(=O)c3ccccc3C(=O)Nc3cccc(Cl)c3F)cc2[nH]1` [Entry 407, methyl {6-[(2-{[(3-chloro-2-fluorophenyl)amino]carbonyl}phenyl)carbonyl]-1H-benzimidazol-2-yl}carbamate], the IC50 on c-Raf and on B-Raf was less than 100 nM each time.
Consider `COC(=O)Nc1nc2ccc(C(=O)c3ccccc3C(=O)Nc3ccc(F)c(C)c3)cc2[nH]1` [Entry 408, methyl {6-[(2-{[(4-fluoro-3-methylphenyl)amino]carbonyl}phenyl)carbonyl]-1H-benzimidazol-2-yl}carbamate], for which the IC50 on c-Raf and at B-Raf was less than 100 nM each time.
As for `COC(=O)Nc1nc2ccc(C(=O)c3ccccc3C(=O)Nc3cc(Br)c(F)cc3F)cc2[nH]1` [Entry 410, methyl {6-[(2-{[(5-bromo-2,4-difluorophenyl)amino]carbonyl}phenyl)carbonyl]-1H-benzimidazol-2-yl}carbamate], the IC50 on c-Raf and at B-Raf was less than 100 nM in each case.
For `COC(=O)Nc1nc2ccc(C(=O)c3ccccc3C(=O)Nc3cc(Cl)c(F)cc3F)cc2[nH]1` [Entry 411, methyl {6-[(2-{[(5-chloro-2,4-difluorophenyl)amino]carbonyl}phenyl)carbonyl]-1H-benzimidazol-2-yl}carbamate], the IC50 on c-Raf and at B-Raf was less than 100 nM in each case.
Consider `C=Cc1cccc(NC(=O)c2ccccc2C(=O)c2ccc3nc(NC(=O)OC)[nH]c3c2)c1` [Entry 413, methyl {6-[(2-{[(3-ethenylphenyl)amino]carbonyl}phenyl)carbonyl]-1H-benzimidazol-2-yl}carbamate], for which the IC50 on c-Raf and on B-Raf was less than 100 nM throughout.
As to `C#Cc1cccc(NC(=O)c2ccccc2C(=O)c2ccc3nc(NC(=O)OC)[nH]c3c2)c1F` [Entry 414, methyl {6-[(2-{[(3-ethynyl-2-fluorophenyl)amino]carbonyl}phenyl)carbonyl]-1H-benzimidazol-2-yl}carbamate], the IC50 on c-Raf and at B-Raf was less than 100 nM each time.
`C=Cc1cccc(NC(=O)c2ccccc2C(=O)c2ccc3nc(NC(=O)OC)[nH]c3c2)c1F` [Entry 418, methyl {6-[(2-{[(3-ethenyl-2-fluorophenyl)amino]carbonyl}phenyl)carbonyl]-1H-benzimidazol-2-yl}carbamate]: the half-maximal inhibitory concentration (IC50) on c-Raf and on B-Raf was less than 100 nM in each case.
Regarding `COC(=O)Nc1nc2ccc(C(=O)c3ccccc3C(=O)Nc3cc(C)ccc3F)cc2[nH]1` [Entry 419, methyl {6-[(2-{[(2-fluoro-5-methylphenyl)amino]carbonyl}phenyl)carbonyl]-1H-benzimidazol-2-yl}carbamate], the 50% inhibitory concentration (IC50) on c-Raf and on B-Raf was less than 100 nM in each case.
